Experimental data reported in patent US8278033B2, “Efficient well being assessment and improved treatment protocol” (priority 2008, dated 2012).
Values joined by “and” are separate entries in the source; they are usually repeats but may differ in a detail not shown here. Equal entries are not always repeated.

How the values were obtained:
endothelial cells [1] = test: Anti-vascular score (AVS) on Fast Green/H&E slides of tumor cell cultures, averaged over paired comparisons; type: cell-based, human; design: key to Anti-Vascular Score (AVS) (Avg): 10x the 0+ to 5+ anti-microvascular score (max 50); key to AVS minus VAVS (Avg): AVS minus vehicle AVS, on 10x the 0+ to 5+ scale; conditions: for Anti-Vascular Score (AVS) (Avg): 10x multiples of the 0+ to 5+ score, average of N paired comparisons, bevacizumab 2.5 mg/ml, DMSO 0.5% + EtOH 0.5%, cisplatin 3.3, sunitinib 8.35, gefitinib 22.35, erlotinib 89.4, sorafenib 12.5, imatinib 12.5 μg/ml; for AVS minus VAVS (Avg): AVS corrected for the effect of vehicle by subtraction; for AVS minus VAVS (Avg) / (AVS − VAVS)/AT Ratio (Avg): concentrations as in Table 1; for (AVS − VAVS)/AT Ratio (Avg): ratio of vehicle-corrected AVS to antitumor score
Procedure: (§1) Solid tumors are minced to pieces smaller than 1 mm (small enough to be aspirated into a standard disposable 10 ml pipette) with high quality curved surgical scissors. Medium in which said tumors may have been transported is reserved, along with the supernatant from the tissue mince. Scissor-minced tumor pieces are digested with collagenase/DNase in RPMI-1640 containing antibiotics and 10% fetal calf serum. Specimens are digested in 50 ml disposable polypropylene centrifuge tubes, assisted by gentle mixing with plastic-coated, magnetic stirring bars over a stirring plate. Specimens are thusly mixed until complete gross digestion has taken place—typically about 2-3 hours for a 1-3 gram specimen. Cytospin slides are then prepared from all cell fractions (transport medium, supernatant from tissue mince, and enzyme digestate), and stained with fast green-H&E, as described previously (Weisenthal, et al., “A Novel Dye Exclusion Method for Testing in vitro Chemosensitivity of Human Tumors,” Cancer Res. (1983) 43:749-757).
Final volume of cell suspension/drug solution (or vehicle) plated for culture can be 0.12 ml. Culturing is in polypropylene round bottom, 96-well culture dishes in a humidified 37° C. incubator for a standardized duration of time.
Cells are cultured with the index concentration of each drug and, if desired, with dilutions of the index concentration, where the index concentration is determined from training set assays or from the literature. […] Replicate 96-well plates are tested.
The various drugs were rated by scoring on a 0+ to 5+ scale for the anti-microvascular effects, with 5+ being the highest possible score. […] The “nib” drugs are kinase inhibiting drugs.
(§2) For this determination, the results provided in Table 1 are 10× multiples of the scoring system of the previous paragraph.
(§3) The scores provided in FIG. 2 were multiplied by 10 and averaged to give an anti-vascular score (AVS) shown in column 2; the average AVS for the vehicle alone (VAVS) is shown in column 3 and the level of the statistical significance of their difference is shown in column 4. The AVS score was corrected for the effect of vehicle by subtraction as shown in column 5. The antitumor score (AT) is shown in column 6.
Finally, the ratio of AVS (corrected for the effect of vehicle) to the antitumor score is shown in the last column.

tumor cells [2] = test: Direct antitumor (AT) score on slides of tumor cell cultures; type: cell-based, human; conditions: direct antitumor effects; concentrations as in Table 1
Procedure: as §1
To assay for endothelial cells are mixed with, for example, 10% (volume/volume) or, for example, 1% (volume/volume) or intermediate percentages of antiangiogenic drug containing solution or vehicle control (most typically 0.9% NaCl). Final volume of cell suspension/drug solution (or vehicle) plated for culture can be 0.12 ml. Culturing is in polypropylene round bottom, 96-well culture dishes in a humidified 37° C. incubator for a standardized duration of time.
Cells are cultured with the index concentration of each drug and, if desired, with dilutions of the index concentration, where the index concentration is determined from training set assays or from the literature. Negative controls generally consist of 0.9% NaCl, and/or the vehicle in which an antiangiogenic drug is dissolved. Replicate 96-well plates are tested.
as §2, §3

endothelial cells [3] = test: Anti-microvascular effects in non-Hodgkin's Lymphoma lymph node biopsy culture (ImageJ and manual scores); type: cell-based, human; conditions: for anti-microvascular activity (in words) / concentration at which anti-angiogenic cell effects were achievable: NHL lymph node biopsy sample; for anti-microvascular activity (in words): FIG. 6; for concentration at which anti-angiogenic cell effects were achievable: FIG. 7
Description: (§4) A lymph node biopsy was obtained from a non-Hodgkin's Lymphoma patient and processed and stained as described above. […] The cells can also be imaged using publicly available “ImageJ” software available from the National Institutes of Health (NIH) to assist quantitation. The image is converted to 8-bit black and white threshold gated to paint only the dead endothelial cells.
The raw scores for the gated features (putative dead endothelial cells) are normalized for uneven cell distributions by image analyzing each area twice: first with the detection threshold set to gate only the features of interest (putative dead endothelial cells) and then again to detect all features on the slide (this would be analogous to normalizing gene copy to total DNA in cell extracts).

[4] = test system: non-Hodgkin's Lymphoma (NHL) cells; test: Direct antitumor cell effects in non-Hodgkin's Lymphoma lymph node biopsy culture; type: cell-based, human; conditions: NHL lymph node biopsy sample, FIG. 6
Description: as §4
(§5) The objective, automated ImageJ scores for both individual gated features and also for total area (originally in pixels squared) is shown. The raw scores for the gated features (putative dead endothelial cells) are normalized for uneven cell distributions by image analyzing each area twice: first with the detection threshold set to gate only the features of interest (putative dead endothelial cells) and then again to detect all features on the slide (this would be analogous to normalizing gene copy to total DNA in cell extracts). Shown additionally are the subjective (0+ to 5+) manual anti-vascular scores which were obtained one month before the installed the ImageJ software was installed. Shown additionally are the direct antitumor cell effects of each of the drugs and solvents tested.

endothelial cells [5] = test: Endothelial cell killing by drugs and combinations in a poorly differentiated breast cancer specimen; type: cell-based, human; conditions: for effectiveness in endothelial cell killing (in words): Fast Green/H&E
Description: A specimen of poorly differentiated breast cancer was used in the procedures set forth in the previous examples and tested with various drugs and drug combinations as described above.

tumor cells [6] = conditions: microaggregates of tumor biopsies, WO 2007/075440; cited from earlier work
endothelial cells [7] = test: Endothelial cell death in cultured peripheral blood chronic lymphocytic leukemia cells; type: cell-based, human; conditions: peripheral blood CLL cells cultured 4 days, 2.5 mg/ml
Description: They are readily apparent as refractile, angular small cells of smaller dimension than the surrounding cells. These cells are about one-third the size of lymphocytes and are about 3μ in diameter.

endothelial cells [8] = conditions: microaggregates of tumor biopsies, WO 2007/075440; cited from earlier work
[9] = test system: vascular endothelial growth factor (VEGF); test: Level of VEGF in tumor cell cultures (optical density 450 nm minus 570 nm); type: cell-based, human
Procedure: The observed ability of EtOH/DMSO to effect killing of microvascular/endothelial cells may be due to the ability of these solvents to reduce the levels of VEGF in cell culture. It is known that tumor cells secrete VEGF and VEGF is needed, for the growth of neovasculature. Accordingly, a number of tumor cell cultures were treated with these solvents. The level of VEGF in the cultures was measured by subtracting the optical density at 570 nm from the optical density of 450 nm.
For tumor samples preserved in 10% DMSO, only very low levels of VEGF were observed. […] Of particular interest are the cells from Patient 6, shown at the end of the table.

endothelial cells [10] = test: ImageJ quantitation of dead endothelial cells in cultured lymph samples; type: cell-based, human; conditions: all of the lymphoma patients
Description: as §4, §5
Lymph samples from five lymphoma patients and two normal volunteers were cultured and stained as described above. […] The quantitation of results was as described in Example 4 using ImageJ software.

endothelial cells [11] = test: Anti-microvascular effect scoring, Fast Green/H&E stained pancreatic carcinoid tumor suspension culture; type: cell-based, human
Procedure: as §1
Final volume of cell suspension/drug solution (or vehicle) plated for culture can be 0.12 ml. […]
Cells are cultured with the index concentration of each drug and, if desired, with dilutions of the index concentration, where the index concentration is determined from training set assays or from the literature. […]

Compound	Anti-Vascular Score (AVS) (Avg) (endothelial cells [1])	AVS minus VAVS (Avg) (endothelial cells [1])	(AVS − VAVS)/AT Ratio (Avg) (endothelial cells [1])	Anti-Tumor (AT) Score (Avg) (tumor cells [2])	anti-microvascular activity (in words) (endothelial cells [3])	direct antitumor activity (in words) [4]	also measured
C#Cc1cccc(Nc2ncnc3cc(OCCOC)c(OCCOC)cc23)c1 [Erlotinib, erlotinib]	16.2	4.2	0.19	22.5	comparable to those of vehicle alone	to a lesser extent, erlotinib acted directly on tumor cells	effectiveness in endothelial cell killing (in words) (endothelial cells [5]): None appeared particularly effective
CCO [ethanol]	–	–	–	–	–	–	concentration at which anti-angiogenic cell effects were achievable (endothelial cells [3]): 0.125 % of the final medium
bevacizumab	24.7	19.7	–	12.9	–	essentially no direct antitumor effects	effect on tumor cells (in words) (tumor cells [6]): tumor cells remain unaffected; endothelial cell death (endothelial cells [7]): caused endothelial cell death; dead endothelial cells (200x view) (endothelial cells [3]; NHL lymph node biopsy cells cultured 4 days): presence of dead endothelial cells is readily apparent; effect on endothelial cells (in words) (endothelial cells [8]): endothelial cells showing up dead; 450-570 O.D. (level of VEGF) ([9]; Pt 1 cells (Merkel tumor, 10% DMSO cryopreserved), 1.25 mg/ml, wells #1-#3, listed as Bev): 0.054 and 0.059; 450-570 O.D. (level of VEGF) ([9]; Pt 1 cells (Merkel tumor, 10% DMSO cryopreserved), 2.5 mg/ml, wells #1-#3, listed as Bev): 0.051 and 0.052 and 0.054; 450-570 O.D. (level of VEGF) ([9]; Pt 2 cells (ovarian, 10% DMSO cryopreserved), 1.25 mg/ml, wells #1-#3, listed as Bev): 0.059 and 0.055 and 0.054; 450-570 O.D. (level of VEGF) ([9]; Pt 2 cells (ovarian, 10% DMSO cryopreserved), 2.5 mg/ml, wells #1-#3, listed as Bev): 0.052 and 0.056 and 0.054; 450-570 O.D. (level of VEGF) ([9]; Pt 3 cells (breast, fresh), 2.5 mg/ml, wells #1-#2, listed as Bev): 0.056 and 0.059; 450-570 O.D. (level of VEGF) ([9]; Pt 4 cells (NHL, fresh), 1.25 mg/ml, wells #1-#2, listed as Bev): 0.074 and 0.068; 450-570 O.D. (level of VEGF) ([9]; Pt 4 cells (NHL, fresh), 2.5 mg/ml, wells #1-#2): 0.055; 450-570 O.D. (level of VEGF) ([9]; Pt 5 cells (breast, fresh), 2.5 mg/ml, well #1): 0.053; 450-570 O.D. (level of VEGF) ([9]; Pt 6 cells (breast, fresh), 1.25 mg/ml, well #1): 0.063; 450-570 O.D. (level of VEGF) ([9]; Pt 6 cells (breast, fresh), 2.5 mg/ml, well #1): 0.052; levels of VEGF (in words) ([9]; fresh breast tumor cells, untreated levels off-scale): could be brought to 0; visibility of endothelial cells (in words) (endothelial cells [10]): greatly enhanced; endothelial cell death (appearance after Fast Green/H&E) (endothelial cells [11]; pancreatic carcinoid tumor, 96 hours in suspension culture, 2.5 mg/ml): resulting in endothelial cell death; anti-microvascular score (endothelial cells [5]; drug alone): +1
COc1cccc2c1C(=O)c1c(O)c3c(c(O)c1C2=O)C[C@@](O)(C(=O)CO)C[C@@H]3O[C@H]1C[C@H](N)[C@H](O)[C@H](C)O1 [doxorubicin]	–	–	–	–	relatively ineffective as anti-microvascular agents	direct antitumor effects	–
C[S+](C)[O-] [DMSO]	–	–	–	–	–	–	concentration at which anti-angiogenic cell effects were achievable (endothelial cells [3]): 0.125 % of the final medium
N.N.[Cl][Pt][Cl] [Cisplatin]	4.5	0.6	0.01	59.2	–	–	–
Cc1ccc(NC(=O)c2ccc(CN3CCN(C)CC3)cc2)cc1Nc1nccc(-c2cccnc2)n1 [Imatinib, imatinib]	–	2.8	–	23.6	comparable to those of vehicle alone	acted directly on tumor cells	effectiveness in endothelial cell killing (in words) (endothelial cells [5]): None appeared particularly effective
CCN(CC)CCNC(=O)c1c(C)[nH]c(/C=C2\C(=O)Nc3ccc(F)cc32)c1C [Sunitinib, sunitinib]	9.5	4.9	0.19	25.8	–	–	–
CNC(=O)c1cc(Oc2ccc(NC(=O)Nc3ccc(Cl)c(C(F)(F)F)c3)cc2)ccn1 [Sorafenib, sorafenib]	–	1.4	–	28.7	comparable to those of vehicle alone	acted directly on tumor cells	–
COc1cc2ncnc(Nc3ccc(F)c(Cl)c3)c2cc1OCCCN1CCOCC1 [Gefitinib, gefitinib]	8.3	4.5	0.16	28.5	–	–	anti-microvascular effects score (0+ to 5+ scale) (endothelial cells [11]; pancreatic carcinoid tumor suspension culture, bevacizumab at 2.5 mg/ml, Fast Green/H&E): 0
